Assay results reported in patent US12070471B2, “Remote loading of sparingly water-soluble drugs into lipid vesicles” (CELATOR PHARMACEUTICALS, INC., priority 2014, dated 2024).

Columns and labels:
[1] = Aripiprazole precipitates from various solvents, absorbance at 600 nm with liposomes; format: physicochemical; details: drug initially dissolved in DMSO, 1-4-methylpyrrolidone, diethylenemonoethylether or polyethyleneglycol (MW400); 7.5% solvent; 65 C 30 min
Method: Aripiprazole was dissolved in a range of solvents indicated below at 4 mg/mL. Liposomes composed of HSPC/Chol/PEG-DSPE (3/2/0.15 mol/mol/mol) that were prepared in 250 mM ammonium sulfate were used and diluted to 6 mM in Hepes buffered sucrose 10% (wt/wt) (HBSuc pH 6.5). 0.3 mg of drug was introduced by slow addition of each solvent while vortexing. The final solvent concentration was 7.5% for all samples. As controls, the drug was added from each solvent to the same volume of HBSuc pH 6.5 without the liposomes. The samples were heated at 65° C. for 30 min then cooled on ice.

[2] = Aripiprazole loading into ammonium sulfate or sodium sulfate liposomes; format: physicochemical; details: ratio of ammonium sulfate to sodium sulfate liposomes
Method: Liposomes (HSPC/Chol/PEG-DSPE 3/2/0.15 mol/mol/mol) containing 250 mM ammonium sulfate or 250 mM sodium sulfate were diluted in 1 mL of 50 mM citric acid, 10% (wt/wt) sucrose, pH 4.0 to a concentration of 6 mM phospholipid. 0.3 mg of aripiprazole was added from a stock solution of 15 mg/mL in DMSO, so that the final DMSO concentration was 2% (v/v). Fine precipitates were immediately observed after the drug was added to both liposome samples. The samples were heated at 65° C. for 30 min, the cooled on ice. The samples were filtered through a 0.2 um polyethersulfone syringe filter to remove any drug precipitates, followed by purification on a Sephadex G25 column equilibrated with HBS, pH 6.5 to remove any soluble extraliposome drug. The turbid fraction was collected and analyzed for lipid and drug as described above.

clarification of drug precipitate on incubation with liposomes (absorbance at 600 nm) [1]: clarified the drug precipitate | % Efficiency NH4SO4/NaSO4 [2]: 49.3
Compound: O=C1CCc2ccc(OCCCCN3CCN(c4cccc(Cl)c4Cl)CC3)cc2N1 [aripiprazole]
